Measured values: US20230406865A1, “CRYSTAL FORM OF FREE BASE OF INHIBITOR CONTAINING BICYCLIC RING DERIVATIVE AND PREPARATION METHOD AND APPLICATION OF CRYSTAL FORM” (SHANGHAI HANSOH BIOMEDICAL CO., LTD., priority 2020, published 2023)

Key:
[1] = test system: phosphorylation of ERK, a downstream signal factor of TT cells; assay: Inhibition of ERK phosphorylation in TT cells (Western Blot); assay type: cell-based, human; settings: for inhibition of ERK phosphorylation: 2 hours, TT cells; for inhibition of phosphorylation level of ERK in TT cells: 3.7-300 nM, 2 hours at 37° C., Western Blot
From the text: 2.2 Experimental Reagents: • pERK antibody was purchased from Cell Signaling Technology Company, the article number was 43705; • Total ERK antibody was purchased from Cell Signaling Technology Company, the article number was 4696S; • The internal reference GAPDH was purchased from Cell Signaling Technology Company, the article number was 51745; • The fluorescent secondary antibodies were purchased from LI-COR Company, the article numbers were P/N 925-68071 and P/N 926-32210.
In this experiment, the inhibitory effect of compounds on the phosphorylation level of ERK, a downstream signaling factor in TT cells was measured by Western Blot method. When TT cells were cultured to the appropriate fusion level, the cells were collected and adjusted to the appropriate cell concentration using complete medium, the cell suspension was spread in a 24-well plate, 1 mL per well, and placed in the wall of a 37° C., 5% CO2 incubator overnight, and compound dilutions of different concentrations (3.7 nM, 11.1 nM, 33.3 nM, 100 nM, 300 nM) were added at 37° C. and acted for 2 hours; the cell supernatant was aspirated, washed one time with PBS, and the proteins were collected with lysate; after protein denaturation, Western blot experiments were performed: performing protein electrophoresis at 120V for approximately 75 minutes, followed by 45 minutes of transfer to PVDF membranes at 10V with a semi-dry transfer instrument, enclosing at 5% BSA for 1 hour at room temperature, and then PVDF membranes were cut into strips of appropriate size and incubated with prepared antibody dilutions overnight at 4° C. and washed 6 times with TBST, followed by incubating with goat anti-mouse secondary antibody and goat anti-rabbit secondary antibody for 1 hour at room temperature, and the membrane was washed 6 times with TBST for imaging in the Biorad ChemiDoc™ MP Imaging System.
The inhibitory effect of compounds on ERK phosphorylation levels in TT cells at different concentrations was determined by detecting protein bands.

[2] = target: hERG (Homo sapiens, UniProt Q12809); assay: cell-based
Description: Terfenadine (Sigma-Aldrich, MKBX6318V); • HEK293-hERG cell line (human embryonic kidney cells stably expressing hERG channels), provided by Academy of Military Medical Sciences.
Human embryonic kidney cells (HEK293) stably expressing hERG channels were cultured in DMEM medium (DMEM, HyClone) in a 37° C. cell incubator containing 5% CO2. About 10% fetal bovine serum (FBS, gibco) was added to the cell culture medium.
Human embryonic kidney cells stably expressing hERG channels (HEK293-hERG) were used for the experiment. HEK293 cells were clamped with the Multi Clamp 700B manual patch clamp system to form a whole-cell voltage clamp pattern, and hERG current was induced with the corresponding voltage. […] The peak values of tail current recorded under the solvent control were taken as 100%, and the data of positive control and test samples were standardized. Curve fitting and IC50 calculation were done in the software GraphPad Prism 5.00 using the standard Hill equation.

hERG, sequence (Q12809 whole entry): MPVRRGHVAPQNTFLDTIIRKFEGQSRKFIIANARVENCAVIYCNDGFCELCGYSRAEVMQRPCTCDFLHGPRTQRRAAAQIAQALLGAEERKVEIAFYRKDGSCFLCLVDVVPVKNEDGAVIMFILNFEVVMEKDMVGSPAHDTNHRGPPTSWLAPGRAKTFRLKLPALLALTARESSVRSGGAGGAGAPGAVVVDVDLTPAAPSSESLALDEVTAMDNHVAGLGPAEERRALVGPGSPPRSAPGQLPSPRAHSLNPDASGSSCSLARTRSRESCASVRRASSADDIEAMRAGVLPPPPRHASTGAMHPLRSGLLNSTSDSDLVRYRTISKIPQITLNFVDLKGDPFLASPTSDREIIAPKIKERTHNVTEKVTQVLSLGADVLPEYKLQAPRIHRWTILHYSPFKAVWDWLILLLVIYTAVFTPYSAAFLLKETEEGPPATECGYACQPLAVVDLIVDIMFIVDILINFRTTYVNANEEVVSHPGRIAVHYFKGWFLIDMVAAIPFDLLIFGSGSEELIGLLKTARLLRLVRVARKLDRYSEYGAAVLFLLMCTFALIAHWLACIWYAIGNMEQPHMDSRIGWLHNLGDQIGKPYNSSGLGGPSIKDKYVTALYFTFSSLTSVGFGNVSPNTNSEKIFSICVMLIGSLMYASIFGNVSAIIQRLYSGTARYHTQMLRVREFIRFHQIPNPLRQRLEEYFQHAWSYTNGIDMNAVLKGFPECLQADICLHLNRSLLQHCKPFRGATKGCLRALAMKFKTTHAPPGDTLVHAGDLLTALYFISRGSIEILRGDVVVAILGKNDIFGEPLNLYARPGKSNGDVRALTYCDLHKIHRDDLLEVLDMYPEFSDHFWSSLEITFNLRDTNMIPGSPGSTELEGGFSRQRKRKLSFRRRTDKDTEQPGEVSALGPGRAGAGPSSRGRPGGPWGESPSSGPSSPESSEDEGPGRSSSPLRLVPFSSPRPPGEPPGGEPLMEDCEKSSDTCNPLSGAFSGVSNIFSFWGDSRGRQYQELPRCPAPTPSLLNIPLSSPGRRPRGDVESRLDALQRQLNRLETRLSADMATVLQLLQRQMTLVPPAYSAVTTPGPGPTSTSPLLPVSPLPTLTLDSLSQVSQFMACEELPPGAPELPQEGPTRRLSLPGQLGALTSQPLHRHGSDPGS

Compound | inhibition of ERK phosphorylation ([1]; 3.7 nM) | inhibition of ERK phosphorylation ([1]; 11.1 nM) | inhibition of ERK phosphorylation ([1]; 33.3 nM) | inhibition of ERK phosphorylation ([1]; 100 nM) | inhibition of ERK phosphorylation ([1]; 300 nM) | inhibition of phosphorylation level of ERK in TT cells [1] | IC50 [2] [µM] | inhibition at 0.1 μmol/L ([2]; human) [%] | inhibition at 1 μmol/L ([2]; human) [%] | inhibition at 3 μmol/L ([2]; human) [%] | inhibition at 10 μmol/L ([2]; human) [%] | inhibition at 30 μmol/L ([2]; human) [%]
C#C[C@](C)(O)COc1cc(-c2ccc(N3CC4CC(C3)N4Cc3ccc(OC)nc3)nc2)c2c(C#N)cnn2c1 [Embodiment 64, 6-(((S)-2-hydroxy-2-methylbut-3-yn-1-yl)oxy)-4-(6-(6-((6-methoxypyridin-3-yl)methyl)-3,6-diazabicyclo[3.1.1]heptan-3-yl)pyridin-3-yl)pyrazolo[1,5-a]pyridine-3-carbonitrile] | the inhibition level was weaker | half | the degree of inhibition was reduced | completely inhibit | completely inhibit | significantly inhibit |  |  |  |  |  | 
C#C[C@@](C)(O)COc1cc(-c2ccc(N3CC4CC(C3)N4Cc3ccc(OC)nc3)nc2)c2c(C#N)cnn2c1 [Embodiment 63, 6-(((R)-2-hydroxy-2-methylbut-3-yn-1-yl)oxy)-4-(6-(6-((6-methoxypyridin-3-yl)methyl)-3,6-diazabicyclo[3.1.1]heptan-3-yl)pyridin-3-yl)pyrazolo[1,5-a]pyridine-3-carbonitrile] | about half | almost completely inhibited | almost completely inhibited | almost completely inhibited | almost completely inhibited | significantly inhibit | 16.9 | 3.24 | 8.39 | 12.7 | 35.4 | 58.8
